Test results published in patent US20130065959A1, “SANITIZING MEAT WITH PERACID AND 2-HYDROXY ORGANIC ACID COMPOSITIONS” (Fresh Express Incorporated, priority 2009, published 2013).

Legend:
[1] = tested on: Pseudomonas aeruginosa (ATCC 9027); assay: Attached cells on non-food surface coupons (Example 6); type: cell-based; conditions: 90 sec
Description: Inoculum preparation: Pseudomonas aeruginosa (ATCC 9027) freeze dried culture was rehydrated in 10 mL of sterilized nutrient broth (NB) and mixed homogeneously. 0.1 mL of the stock solution was transferred to 10 mL of NB and incubated at 37C for 24 h. Enrichment was streaked to confirm purity. 10 mL of the enriched stock was transferred to 1,000 mL of NB and incubated at 37C for 24 h resulting in ˜10^8 cfu/mL stationary phase culture stock. The stock was cooled at 4C for 1 h. Microbial population of the stationary phase stock culture was enumerated by means of serial dilution with 9-mL Butterfield phosphate buffer tubes and spread plating on Nutrient Agar […] pre-poured agar plates.
Non-food surface inoculation: The 1000 mL˜10^8 cfu/mL stock culture solution was homogeneously mixed by shaking and swirling the Erlenmeyer flask. The 1000 mL culture was separated into 20 centrifuge tubes (50 mL each) and centrifuged at 10,000 rpm and 4C for 15 min. The stock culture pellet was re-suspended with 50 mL of NB. All the re-suspended cultures from the 20 centrifuge tubes were combined to form 1,000 mL˜10^8 cfu/mL inoculating stock culture. 15 mL of the P. aeruginosa inoculating stock together with a non-food surface coupon (2.5 cm×5 cm) were placed in a sterilized 50mL-centrifuge tube and incubated for 24 h at 37C. After 24 hr, the coupon was transferred to a sterile Petri dish and placed in an oven to dry for 1 hour at 35C. The coupons were cut from stainless steel sheet, wood, glass slide, and plastic sheet.
Treatment of inoculated non-food surfaces: 1 mL of test solution was dispensed onto a 2.5cm×2.5 cm marked area of each inoculated coupon for 60 s. A pre-wet sterilized cotton swab was dipped in 10 mL Butterfield phosphate buffer with sodium thiosulfate and swabbed the marked area on the coupon after 60 s exposure. The swabbed was then immediately placed into the 10 mL Butterfield phosphate buffer with sodium thiosulfate and mixed. One mL was immediately transferred from the aforementioned tube to a 9 mL Butterfield phosphate buffer. The total treatment time including the exposure time, the swabbing time, and the transfer time was 90 s. Each solution treatment was performed in duplications. The reduction for each solution treatment was compared to that of the city water treatment.

[2] = tested on: E. coli K-12 (ATCC 25253); assay: Attached cells on chicken wing skin (Example 8); type: cell-based; conditions: Middle chicken wing skin, 10.5 min
Description: Inoculum preparation: ATCC freeze dried culture was rehydrated in 10 mL of sterilized TSB and mixed homogeneously. 0.1 mL of the stock solution was transferred to 10 mL of TSB and incubated at 37C for 24 h. Enrichment was streaked to confirm purity. 2 mL of the enriched stock was transferred to 200 mL of TSB and incubated at 37C for 24 h for E. coli K-12 (ATCC 25253) (EC) resulting in ˜10^8 cfu/mL stationary phase culture stock. The stock was cooled at 4C for 1 h. Microbial population of the stationary phase stock culture was enumerated by means of serial dilution with 9-mL Butterfield phosphate buffer tubes and spread plating on Tryptic Soy Agar (TSA) pre-poured agar plates for EC
Chicken wing surface inoculation: The 200 mL ˜10^8cfu/mL stock culture solution was homogeneously mixed by shaking and swirling the Erlenmeyer flask. The 200 mL culture was separated into 4 centrifuge tubes (50 mL each) and centrifuged at 10,000 rpm and 4C for 15 min. The stock culture pellet was re-suspended with 5 mL of 5% Horse Serum. All the re-suspended cultures from the four centrifuge tubes were combined to form 20 mL˜10^9 cfu/mL inoculating stock culture. The chicken middle wing was pat dried by paper towel. A permanent marker was used to mark a 2.5 cm×2.5 cm square at the middle of the flat surface of the chicken wing for inoculation. 50 uL inoculum in the form of 2 uL droplets were spiked onto the marked square on the chicken wing skin. The inoculated chicken wing was placed into a sterile polypropylene basket. The spiked chicken wing inside the polypropylene basket was dried inside a biological safety cabinet for 120 min at 18 to 24C.
Treatment of inoculated chicken wing: Each sample of inoculated chicken wing was placed into a 2.5L stomacher bag containing 500 mL of the tested solution for 10 minutes with intermittent 30 s-shakings at 0, 4, and 9 min. The tested solutions included city water, lactic acid solution (LA), peracetic acid solution (PA), and FreshRinse solution (FR). The treated chicken wing was immediately removed from the treatment solution after 10 min and placed into a sterilized Petri-dish with the marked side facing up. A pre-wet sterilized swab dipped in 10 mL Butterfield phosphate buffer with sodium thiosulfate was used to swab the marked area. After swabbing the cotton wool swab was immediately placed back into the 10 mL Butterfield phosphate buffer with sodium thiosulfate and mixed. One mL was immediately transferred from the aforementioned tube to a 9 mL Butterfield phosphate buffer. The total treatment time including the exposure time, the swabbing time, and the transfer time was 10.5 min. Each solution treatment was performed in duplications. The reduction for each solution treatment was compared to that of the city water treatment

[3] = 40° C.; cited from earlier work
[4] = cited from earlier work

With `CC(O)C(=O)O` (centres unmarked) [Lactic Acid, lactic acid] the Log reductions ([1]; Glass coupon, PA 0 ppm, LA 1,250 ppm) was 0.4, the Log reductions ([1]; Glass coupon, PA 0 ppm, LA 2,500 ppm) was 1.7 and the Log reductions ([1]; Plastic coupon, PA 0 ppm, LA 2,500 ppm) was 0.6. For the same compound, the Log reductions ([1]; Plastic coupon, PA 0 ppm, LA 5,000 ppm) was 1.2, the Log reductions ([1]; Stainless steel coupon, PA 0 ppm, LA 1,250 ppm) was 1.6 and the Log reductions ([1]; Stainless steel coupon, PA 0 ppm, LA 2,500 ppm) was 1.9. It also gave a Log reductions ([1]; Wood coupon, PA 0 ppm, LA 2,500 ppm) of 1.4, a Log reductions ([1]; Wood coupon, PA 0 ppm, LA 7,500 ppm) of 3.6 and a Log reductions ([2]; PA 0 ppm, LA 5,000 ppm) of 0.3. It also gave a Log reductions ([2]; PA 0 ppm, LA 10,000 ppm) of 0.7.
For `CC(=O)OO` [Peroxyacetic acid, peroxyacetic acid], the “apparent equilibrium constant, Kap” value [3] is given as “about 2.21”, the “Oxidation Capacity” value [4] is given as 1.81 eV and the Log reductions ([1]; Glass coupon, PA 60 ppm, LA 0 ppm) is given as 0.2. The Log reductions ([1]; Glass coupon, PA 80 ppm, LA 0 ppm) was 0.0, the Log reductions ([1]; Plastic coupon, PA 60 ppm, LA 0 ppm) was 1.2 and the Log reductions ([1]; Plastic coupon, PA 80 ppm, LA 0 ppm) was 0.9. It also gave a Log reductions ([1]; Stainless steel coupon, PA 60 ppm, LA 0 ppm) of 1.5, a Log reductions ([1]; Stainless steel coupon, PA 100 ppm, LA 0 ppm) of 1.4 and a Log reductions ([1]; Wood coupon, PA 100 ppm, LA 0 ppm) of 1.0. The Log reductions ([1]; Wood coupon, PA 140 ppm, LA 0 ppm) was 0.8, the Log reductions ([2]; PA 40 ppm, LA 0 ppm) was 0.6 and the Log reductions ([2]; PA 60 ppm, LA 0 ppm) was 0.5. For the same compound, the Log reductions ([2]; PA 80 ppm, LA 0 ppm) was 1.0.
